According to patent US10314847B2, “Scalarane sesterterpenoid, pharmaceutical composition and topoisomerase II and Hsp90 inhibitor for treating cancer, and use and preparation method thereof” (NATIONAL DONG HWA UNIVERSITY, priority 2017, dated 2019):

Legend:
Molt 4 = tested on: Molt 4
Text: The cell lines were obtained from the American Type Culture Collection (ATCC, Manassas, Va., U.S.A.) or the Japanese Collection of Research Biosources (JCRB) Cell Bank (Japan). […] Antibodies against XIAP, NFκB (p65), GADD, CDK 4, HSF 1, ATF 6 and β-tubulin were obtained from Santa Cruz Biotechnology (Santa Cruz, Calif., U.S.A.). The Hybond ECL transfer membrane and ECL Western blotting detection kits were obtained from Amersham Life Sciences (Amersham, U.K.).
Several cancer cell lines including leukemia K562, Molt 4, and HL 60 cells, prostate cancer LNCaP cells, colon cancer DLD-1 cells and breast cancer T-47D cells were used to evaluate the antiproliferative activity (referring to Table 2).
It is known that mitochondria are critical intracellular loci of ROS production and ROS exposure can lead to the […] opening. The antioxidant, microsomal GST1, in the inner mitochondrial membrane can interact with the mitochondrial permeability transition (MPT) regulator proteins, such as ANT and/or CypD, to form a MPT pore contributing to mitochondria-mediated cell death. In addition, mitochondrial homeostasis of tumor cells is regulated by an organelle-specific Hsp90 chaperone network.

human topoisomerase II = target: T1, human topoisomerase II (Homo sapiens, UniProt P11388); experiment: Assay of topoisomerase II catalytic inhibitors and poisons (cell-free pHOT1 DNA relaxation/cleavage); format: biochemical
T1 construct: purchased Topogen
Description: Assay of Topoisomerase II Catalytic Inhibitors and Poisons:
Reactions were terminated by adding 2 μL of 10% SDS to facilitate trapping the enzyme in a cleavage complex, followed by the addition of 2.5 μL of proteinase K (50 μg/mL) to digest the bound protein (incubated at 37° C. for 15 minutes) and finally by adding 0.1 volume of the sample loading dye. The DNA products were analyzed via electrophoresis through vertical 2% agarose gels at 2 voltage/cm in 0.5×TAE buffer. Gels were stained with ethidium bromide (EtBr) and photographed using an Eagle Eye II system (Stratagene, La Jolla, Calif., U.S.A.). The quantitative analysis of the DNA Topo II activity was performed.

γH2AX = experiment: Western blot of γH2AX expression in Molt 4 cells; format: cell-based, human; details: Molt 4 cells, 0.0625, 0.125 and 0.25 μg/mL, 24 hours
Description: Protein expression was analyzed with Western blotting. GAPDH was used as the loading control.
In order to confirm whether the DNA damage-induced by the marine terpenoids of the present invention involved the inhibition of Topo II activity, a cell-free DNA cleavage assay using an enzyme-mediated negatively supercoiled pHOT1 plasmid DNA was applied. […] These marine terpenoids suppressed Topo II activity, resulting in the inhibition of supercoiled DNA relaxation in a dose-dependent manner (FIG. 2(A)). […] To determine whether the apoptotic mechanism of compounds 1 to 3 affects γH2AX (as a biomarker of DNA damage) induction, Western blot analysis was employed to examine the activation of γH2AX.

Molt 4 cells [1] = experiment: Annexin V/PI apoptosis assay; format: cell-based, human; details: Molt 4 cells, 0.0625, 0.125 and 0.25 μg/mL, 24 hours, dose-dependent
Description: Annexin V/Propidium Iodide (PI) Apoptosis Assay:
The externalization of phosphatidylserine (PS) and membrane integrity were quantified using an annexin V-fluorescein isothiocyanate (annexin V-FITC) staining kit. In brief, 10^6 cells were grown in 35 mm diameter plates and were labeled with annexin V-FITC (10 μg/mL) and PI (20 μg/mL) prior to harvesting. After labeling, all plates were washed with a binding buffer and harvested. Cells were resuspended in the binding buffer at a concentration of 2×10^5 cells/mL before analysis by flow cytometer FACS-Calibur (Becton-Dickinson, San Jose, Calif., U.S.A.) and CellQuest software. Approximately 10,000 cells were counted for each determination.

Molt 4 cells [2] = experiment: JC-1 staining, mitochondrial membrane potential disruption; format: cell-based, human; details: Molt 4 cells, 0.0625, 0.125 and 0.25 μg/mL, 24 hours, dose-dependent
Description: Determination of Reactive Oxygen Species (ROS) Generation, Calcium Accumulation, and Matrix Metalloproteinase (MMP) Disruption:
MMP disruption, calcium accumulation and ROS generation were detected with the JC-1 cationic dye (5 μg/mL), the fluorescent calcium indicator (Fluo 3, […]) and the carboxy derivative of fluorescein (carboxy-H2DCFDA, […]), respectively. In brief, the treated cells were labeled with a specific fluorescent dye for 30 minutes. After labeling, cells were washed with PBS and resuspended in PBS at a concentration of 1×10^6 cells/mL before analysis via flow cytometry.

[3] = tested on: human Molt 4 tumor xenograft; experiment: Human leukemia Molt 4 cells xenograft animal model; format: in vivo, mice; details: 1.14 μg/g intraperitoneal, 33 days
Description: FIG. 3(A) is a diagram showing the effect of compound 3 on the tumor growth in an in vivo human Molt 4 tumor xenograft animal model. Tumor-bearing nude mice were intraperitoneally injected with solvent control (DMSO) and compound 3 (1.14 μg/g) for 33 days. […] Control, n=8; compound 3, n=7.
FIG. 3(B) is a diagram showing the effect of compound 3 on the body weight in the in vivo human Molt 4 tumor xenograft animal model. Tumor-bearing nude mice were intraperitoneally injected with solvent control (DMSO) and compound 3 (1.14 μg/g) for 33 days. The body weight were measured every other day, and the results are expressed as mean±SD. Control, n=8; compound 3, n=7.
Human Leukemia Molt 4 Cells Xenograft Animal Model:
Six-week-old male immunodeficient athymic mice were purchased from the National Laboratory Animal and Research Center (Taipei, Taiwan). All of the animals were maintained under standard laboratory conditions (temperature 24-26° C., 12-12 hour dark-light circle) and fed with a laboratory diet and water. Molt 4 cells (1×10^6) resuspended in 0.2 mL PBS were injected subcutaneously (s.c.) into the right flank of each mouse, and tumor growth was monitored every day. […] Tumor size was measured three times a week using calipers and tumor volumes were calculated according to the standard formula: width^2×length/2.

T1 sequence (P11388 whole entry): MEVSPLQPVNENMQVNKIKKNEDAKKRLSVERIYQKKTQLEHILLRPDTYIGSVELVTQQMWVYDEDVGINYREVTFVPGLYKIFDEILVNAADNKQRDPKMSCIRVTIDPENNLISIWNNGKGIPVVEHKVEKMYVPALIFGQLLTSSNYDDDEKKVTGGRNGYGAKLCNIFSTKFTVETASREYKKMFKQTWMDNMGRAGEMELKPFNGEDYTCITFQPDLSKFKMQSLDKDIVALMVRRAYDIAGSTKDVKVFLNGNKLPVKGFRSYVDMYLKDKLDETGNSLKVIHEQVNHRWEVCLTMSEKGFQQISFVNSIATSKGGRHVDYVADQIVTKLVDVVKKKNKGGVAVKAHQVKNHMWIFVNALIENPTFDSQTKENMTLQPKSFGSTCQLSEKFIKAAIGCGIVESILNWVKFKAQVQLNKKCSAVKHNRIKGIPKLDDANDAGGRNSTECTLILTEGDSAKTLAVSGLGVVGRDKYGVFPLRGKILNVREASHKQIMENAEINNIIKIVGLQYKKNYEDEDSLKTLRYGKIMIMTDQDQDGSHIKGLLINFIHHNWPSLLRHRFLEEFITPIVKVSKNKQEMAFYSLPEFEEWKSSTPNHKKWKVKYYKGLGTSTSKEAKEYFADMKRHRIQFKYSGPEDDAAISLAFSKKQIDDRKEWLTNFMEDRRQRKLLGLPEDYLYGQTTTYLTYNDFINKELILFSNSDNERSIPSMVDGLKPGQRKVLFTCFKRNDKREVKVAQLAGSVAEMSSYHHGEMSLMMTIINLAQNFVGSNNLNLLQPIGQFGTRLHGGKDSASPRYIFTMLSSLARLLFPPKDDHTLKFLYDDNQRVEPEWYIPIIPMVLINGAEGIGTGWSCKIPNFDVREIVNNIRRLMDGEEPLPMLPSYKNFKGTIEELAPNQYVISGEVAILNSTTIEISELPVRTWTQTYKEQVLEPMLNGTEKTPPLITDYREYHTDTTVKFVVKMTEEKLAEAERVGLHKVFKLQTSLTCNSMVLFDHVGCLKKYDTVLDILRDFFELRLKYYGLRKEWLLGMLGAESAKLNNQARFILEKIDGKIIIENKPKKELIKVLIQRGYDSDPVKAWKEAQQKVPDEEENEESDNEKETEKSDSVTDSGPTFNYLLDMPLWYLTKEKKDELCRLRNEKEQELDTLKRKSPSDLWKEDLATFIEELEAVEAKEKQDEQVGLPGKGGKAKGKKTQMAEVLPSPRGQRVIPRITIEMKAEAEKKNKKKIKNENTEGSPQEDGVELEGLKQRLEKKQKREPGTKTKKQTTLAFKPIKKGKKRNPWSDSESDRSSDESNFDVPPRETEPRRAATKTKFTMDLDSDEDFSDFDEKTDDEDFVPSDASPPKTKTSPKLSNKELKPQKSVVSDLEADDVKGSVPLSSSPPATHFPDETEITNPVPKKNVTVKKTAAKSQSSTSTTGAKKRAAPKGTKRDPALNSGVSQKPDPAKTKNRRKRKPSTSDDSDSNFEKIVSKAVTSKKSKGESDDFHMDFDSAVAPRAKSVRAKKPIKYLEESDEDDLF

Row | Compound | Cytotoxic effect IC50, Molt 4 (Molt 4) | IC50 (human topoisomerase II; cell-free system, read-out: Topo II activity IC50 (converted)) | Expression of γH2AX (DNA damage biomarker) (γH2AX) | Apoptotic population (annexin-V/PI) (Molt 4 cells [1]) | Mitochondrial membrane potential (JC-1) (Molt 4 cells [2]) | inhibition at 0.08 µg/mL (human topoisomerase II; 0.08 μg/mL) | inhibition at 0.312 µg/mL (human topoisomerase II; 0.312 μg/mL) | inhibition at 1.25 µg/mL (human topoisomerase II; 1.25 μg/mL) | inhibition at 5 µg/mL (human topoisomerase II; 5 μg/mL) | inhibition at 20 µg/mL (human topoisomerase II; 20 μg/mL) | Topo II activity IC50 (human topoisomerase II; cell-free system) | Mice body weights versus control [3]
1 | CC[C@@H](O)CC(=O)O[C@@H]1C[C@@H]2[C@@]3(C)CCC[C@](C)(CC)[C@@H]3CC[C@@]2(C)[C@@H]2CC=C(C(C)=O)[C@H](C=O)[C@@]12C (relative stereo) [Compound 2, 12β-(3′β-hydroxypentanoyloxy)-20,24-dimethyl-24-oxo-scalara-16-en-25-al] | 0.30 µg/mL | 719 nM | significantly enhanced the expression of γH2AX in a dose-dependent manner | increase in the apoptotic population | disruption in mitochondrial membrane potential |  |  |  |  |  |  | 
2 | CC(C)=CCC/C(C)=C/CC/C(C)=C/CC/C(C)=C/CC1=CC(=O)C=CC1=O [Compound 3, 2-tetraprenil-1,4-benzochinone] | 0.34 µg/mL |  | activation of DNA damage was not observed | increase in the apoptotic population | disruption in mitochondrial membrane potential | 7% | 13% | 28% | 90% | 98% | 0.43 µg/mL | no significant difference
